Laboratory results as given in US9260440B2, “Fused tetra or penta-cyclic dihydrodiazepinocarbazolones as PARP inhibitors” (BeiGene, Ltd., priority 2011, dated 2016).

system: PARP PARylation in HeLa cells; assay: PARylation assay in HeLa cells; format: cell-based; conditions: Homo sapiens, H2O2 200 μM induced DNA damage

Structure (SMILES)	EC50 [nM]
O=C1NN=C2CC(c3ccccc3)Cc3[nH]c4cccc1c4c32 (stereo not drawn) [Compound 5, 2-phenyl-2,3,5,10-tetrahydro-[1,2]diazepino[3,4,5,6-def]carbazol-6(1H)-one]	10.1
CN(C)c1ccc(C2CC3=NNC(=O)c4cc(F)cc5[nH]c(c3c45)C2)cc1 (stereo not drawn) [Compound 12, 2-(4-(dimethylamino)phenyl)-8-fluoro-2,3,5,10-tetrahydro-[1,2]diazepino[3,4,5,6-def]carbazol-6(1H)-one]	26.6
N[C@@H](Cc1ccccc1)C(=O)N1CC2=NNC(=O)c3cccc4[nH]c(c2c34)C1 [Compound 64, (S)-2-(2-amino-3-phenylpropanoyl)-2,3,4,9-tetrahydro-2,4,9,10-tetraazacyclohepta[def]fluoren-8(1H)-one]	48
